Patent US8232307B2, “Indane-amine derivatives, their preparation and use as medicaments” (Laboratorios del Dr. Esteve, S.A., priority 2007, dated 2012)
Structures can show the parent of a compound that is named as a salt.

target: T1, Cloned Human Serotonin Receptor, Subtype 7 (h5HT7) (Homo sapiens, UniProt P34969); experiment: Radioligand binding assay, [125I]LSD, h5HT7 expressed in CHO cells; details: radioligand [125I]LSD 0.82 nM, read-out: 5-HT7 IC50
T1 construct: purchased PerkinElmer 6120512; host or cells: CHO cells (membranes coated on Basic FlashPlate SMP200)
T1 sequence (P34969 whole entry): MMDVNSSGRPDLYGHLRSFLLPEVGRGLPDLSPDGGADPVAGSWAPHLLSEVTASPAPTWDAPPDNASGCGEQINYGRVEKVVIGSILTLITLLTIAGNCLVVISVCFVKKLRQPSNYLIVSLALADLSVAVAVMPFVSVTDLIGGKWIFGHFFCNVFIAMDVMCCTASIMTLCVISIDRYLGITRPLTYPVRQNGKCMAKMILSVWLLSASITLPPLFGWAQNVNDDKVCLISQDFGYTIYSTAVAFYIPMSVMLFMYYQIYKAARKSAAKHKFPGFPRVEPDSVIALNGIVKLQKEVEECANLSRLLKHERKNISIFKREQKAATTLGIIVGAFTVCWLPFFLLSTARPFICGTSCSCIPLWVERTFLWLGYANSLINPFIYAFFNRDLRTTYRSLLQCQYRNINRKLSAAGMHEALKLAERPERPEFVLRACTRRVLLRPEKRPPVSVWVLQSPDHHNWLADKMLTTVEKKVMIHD
Description: Radioligand binding assays were performed using the Cloned Human Serotonin Receptor, Subtype 7 (h5HT7), expressed in CHO cells, coated on Flashplate (Basic FlashPlate Cat.: SMP200) from PerkinElmer (Cat.: 6120512). The protocol assay was essentially the recommended protocol in the Technical Data Sheet by PerkinEmer Life and Analytical Sciences. The Mass membrane protein/well was typically 12 μg and the Receptor/well was about 9-10 fmoles. The Flashplate were let equilibrate at room temperature for one hour before the addition of the components of the assay mixture. The binding buffer was: 50 mM Tris-HCl, pH 7.4, containing 10 mM MgCl2, 0.5 mM EDTA and 0.5% BSA. The radioligand was [^125I]LSD at a final concentration of 0.82 nM. Nonspecific binding was determined with 50 μM of Clozapine. The assay volume was 25 μl. TopSeal-A were applied onto Flashplate microplates and they were incubated at room temperature for 240 minutes in darkness. The radioactivity were quantified by liquid scintillation spectrophotometry (Wallac 1450 Microbeta Trilux) with a count delay of 4 minutes prior to counting and a counting time of 30 seconds per well. Competition binding data were analyzed by using the LIGAND program (Munson and Rodbard, LIGAND: A versatile, computerized approach for characterization of ligand-binding systems. Anal. Biochem. 107: 220-239, 1980) and assays were performed in triplicate determinations for each point.

Row | SMILES | IC50
1 | CNC1CCc2ccc(-c3c(C)nn(C)c3C)cc21 (stereo not drawn) [Example 4, Methyl-[6-(1,3,5-trimethyl-1H-pyrazol-4-yl)-indan-1-yl]-amine] | 18.7 nM
2 | CNC1CCc2ccc(-c3c(OC)cccc3OC)cc21 (stereo not drawn) [Example 11, [6-(2,6-Dimethoxy-phenyl)-indan-1-yl]-methyl-amine] | 195 ± 86 nM
3 | Cc1nn(C)c(C)c1-c1ccc2c(c1)[C@@H](N(C)C)CC2 [Example 3, (S) Dimethyl-[6-(1,3,5-trimethyl-1H-pyrazol-4-yl)-indan-1-yl]-amine] | 307 ± 181 nM
4 | COc1ccccc1-c1ccc2c(c1)C(N(C)C)CC2 (stereo not drawn) [Example 12, [6-(2-Methoxy-phenyl)-indan-1-yl]-dimethyl-amine] | 68.4 ± 1.1 nM
5 | CNC1CCc2ccc(-c3ccccc3OC)cc21 (stereo not drawn) [Example 13, [6-(2-Methoxy-phenyl)-indan-1-yl]-methyl-amine] | 77.7 ± 40.9 nM
6 | Cc1nn(C)c(C)c1-c1ccc2c(c1)C(N(C)C)CC2 (stereo not drawn) [Example 1, Dimethyl-[6-(1,3,5-trimethyl-1H-pyrazol-4-yl)-indan-1-yl]-amine dihydrochloride] | 15.5 ± 2.9 nM
7 | Cc1nn(C)c(C)c1-c1ccc2c(c1)[C@H](N(C)C)CC2 [Example 2, (R)-Dimethyl-[6-(1,3,5-trimethyl-1H-pyrazol-4-yl)-indan-1-yl]-amine] | 5.5 ± 2.7 nM
8 | COc1cccc(OC)c1-c1ccc2c(c1)C(N(C)C)CC2 (stereo not drawn) [Example 10, [6-(2,6-Dimethoxy-phenyl)-indan-1-yl]-dimethyl-amine] | 53.5 ± 10.1 nM

same assay, conditions: radioligand [125I]LSD 0.82 nM, read-out: 5-HT7 Ki

Row | SMILES | Ki
9 | CN[C@@H]1CCc2ccc(-c3c(C)nn(C)c3C)cc21 [Example 38, (R) Methyl-[6-(1,3,5-trimethyl-1H-pyrazol-4-yl)-indan-1-yl]-amine] | 73.3 ± 9.3 nM
10 | CNC1CCc2ccc(-c3c(F)cccc3F)cc21 (stereo not drawn) [Example 19, [6-(2,6-Difluoro-phenyl)-indan-1-yl]-methyl-amine] | 47.6 ± 1.2 nM
11 | Cc1cccc(C)c1-c1ccc2c(c1)C(N(C)C)CC2 (stereo not drawn) [Example 14, [6-(2,6-Dimethyl-phenyl)-indan-1-yl]-dimethyl-amine] | 198 ± 31.9 nM
12 | CNC1CCc2ccc(-c3c(Cl)cccc3OC)cc21 (stereo not drawn) [Example 21, [6-(2-Chloro-6-methoxy-phenyl)-indan-1-yl]-methyl-amine] | 55.7 ± 1.2 nM
13 | CNC1CCc2ccc(-c3c(C)cccc3C)cc21 (stereo not drawn) [Example 15, [6-(2,6-Dimethyl-phenyl)-indan-1-yl]-methyl-amine] | 75.2 ± 2 nM
14 | Cc1nn(C)c(C)c1-c1ccc2c(c1)C([N+](C)(C)C)CC2 (stereo not drawn) [Example 36, Trimethyl-[6-(1,3,5-trimethyl-1H-pyrazol-4-yl)-indan-1-yl]-ammonium iodide] | 153 ± 32.4 nM
15 | COc1cccc(Cl)c1-c1ccc2c(c1)C(N(C)C)CC2 (stereo not drawn) [Example 20, [6-(2-Chloro-6-methoxy-phenyl)-indan-1-yl]-dimethyl-amine] | 25.8 ± 2.7 nM
